Consider 13 molecules from patent US20150086504A1, “POLYMERIC MICROEMULSIONS” (Janssen Pharmaceutica NV, priority 2002, published 2015).

SMILES strings stand for the structures. In brackets after ≈: the same amount, converted by molar mass. Like-named read-outs stand apart in the source and are kept apart here. Some results are limits rather than exact numbers.

Data set [1] can be described thus: Solubility in water of model compounds (UV spectroscopy). The settings on record: for solubility at 24 h: water, thermodynamic from solid; for solubility in water: mixed with water for 24 hours, UV spectroscopy, mean of triplicate.
Data set [2] is described as follows: Solubility of model compounds in aqueous solutions of polymer D4.1 (mixed directly with polymeric solution; Table 4B). It counts as physicochemical. The settings on record: room temperature, duplicate; for solubility at 24 h: thermodynamic from solid. On the procedure: The solubility of the other model compounds in aqueous solutions of polymer D4.1 was determined by mixing the model compound directly with the polymeric solution for 24 hours at room temperature. Tested polymer concentrations were 1, 5, 10 and 20% (w/v). The obtained suspension was then filtered through a 0.45 μm PVDF membrane filter. The filtered solution was immediately diluted to allow determination of compound concentration by UV spectroscopy. (A polymer solution of the same concentration as the sample to be analysed was used as blank).

Data set [3] in a line: physchem. The note with it: water, thermodynamic from solid.
Data set [4] can be described thus: Pharmacokinetic parameters in plasma (LCMS) after oral administration of risperidone solutions. It is filed as in vivo, Male Wistar rats. The settings on record: rat plasma, active metabolite, micellar solution D4.3 10% (w/v) compared to reference solution. On the procedure: Male Wistar rats (˜200 g) were treated by oral administration of vehicles of 2.5 mg/kg risperidone solubilized in three different vehicles (tartaric acid 0.625% v/v (as the reference), copolymer D4.3 1% (w/v) in water and D4.3 10% (w/v) in water). The animals were sacrificed by decapitation 2 hours after administration.
The above experiment was also performed in function of time for the reference solution and for the D4.3 10% (w/v) aqueous solution. Therefore, animals were sacrificed by decapitation at 10 minutes, 30 minutes, 1 hour, 2 hours, 4 hours, 8 hours, 16 hours and 24 hours after administration of the risperidone formulations. […] During this experiment, the usual pharmacokinetic parameters of the active metabolite following oral administration of the two risperidone solutions were determined by LCMS analysis of the plasma samples. […] This finding confirmed the results of an in vitro release study of risperidone from a micellar solution of the present invention. The in vitro release study was performed by dialysing a micellar solution of the invention containing C^14-radioactive risperidone against water and determining the radioactivity by liquid scintillation counting of samples taken from the water as a function of time.

For data set [5] the following is noted: 24 h.
[6] abbreviates: D4.1 polymer concentration 1 w/v %.
Where [7] appears, read: D4.1 polymer concentration 5 w/v %.
Setting [8] is: D4.1 polymer concentration 10 w/v %.
The mark [9] stands for this setting: D4.1 polymer concentration 20 w/v %.
Where [10] appears, read: 1% (w/v) aqueous solution of diblock copolymer D4.1, aqueous with cosolvent or surfactant or cyclodextrin, D4.1 polymer concentration 1 w/v %.
Where [11] appears, read: 5% (w/v) aqueous solution of diblock copolymer D4.1, aqueous with cosolvent or surfactant or cyclodextrin, D4.1 polymer concentration 5 w/v %.
The mark [12] stands for this setting: 10% (w/v) aqueous solution of diblock copolymer D4.1, aqueous with cosolvent or surfactant or cyclodextrin, D4.1 polymer concentration 10 w/v %.
[13] abbreviates: 20% (w/v) aqueous solution of diblock copolymer D4.1, aqueous with cosolvent or surfactant or cyclodextrin, D4.1 polymer concentration 20 w/v %.

The solubility is the concentration that dissolves in the medium under given conditions. Low readings indicate a poorly soluble substance, high ones a readily soluble substance.

On to `Cc1cc(C)c(Nc2ccnc(Nc3ccc(C#N)cc3)n2)c(C)c1` [TMC 120, 4-[[4-[(2,4,6-trimethylphenyl)amino]-2-pyrimidinyl]amino]benzonitrile], for which the solubility at 24 h in data set [1] is less than 1 µg/mL.
Take `O=c1c2c([nH]c3ccccc13)[C@@H](c1ccc3c(c1)CCO3)N(c1ncc(-c3ccccn3)cn1)C2` [3-(2,3-dihydro-5-benzofuranyl)-1,2,3,4-tetrahydro-2-[5-(2-pyridinyl)-2-pyrimidinyl]-9H-pyrrolo[3,4-b]quinolin-9-one, (3R)]: the solubility in water in data set [1] is less than 1 µg/mL. Further, the “Solubility in aqueous solution of diblock copolymer D4.1” value (from here on “Solubility in aqueous solution”) in data set [2] (setting [6]) was found to be 0.018 mg/mL; in data set [2] (setting [7]), 0.081 mg/mL; in data set [2] (setting [8]), 0.150 mg/mL; in data set [2] (setting [9]) it was 0.280 mg/mL.
As to `Cc1cc2c(cc1-c1cc(/C=C3\SC(=O)NC3=O)ccc1OC(F)(F)F)C(C)(C)CCC2(C)C` [(Z) 5-[[3-(5,6,7,8-tetrahydro-3,5,5,8,8-pentamethyl-2-naphthalenyl)-4-(trifluoromethoxy)phenyl]methylene]-2,4-thiazolidinedione], the solubility at 24 h in data set [2] (setting [10]) was 34 µg/mL (≈ 69.5 µM); in data set [2] (setting [11]), 130 µg/mL (≈ 266 µM); in data set [2] (setting [12]) it was 350 µg/mL (≈ 715 µM); in data set [2] (setting [13]), 580 µg/mL (≈ 1180 µM); in data set [3], less than 0.5 µg/mL.
As to `C[C@@H]1[C@H](O)[C@@H](C)/C=C/C=C/C=C/C=C/C=C/C=C/C=C/[C@H](O[C@@H]2O[C@H](C)[C@@H](O)[C@H](N)[C@@H]2O)C[C@@H]2O[C@](O)(C[C@@H](O)C[C@@H](O)[C@H](O)CC[C@@H](O)C[C@@H](O)CC(=O)O[C@H]1C)C[C@H](O)[C@H]2C(=O)O` [Amphotericin B, amphotericin B], in data set [3], the concentration in solution (solubility at 24 h) was 0.1 µg/mL (≈ 0.108 µM).
Regarding `CC(=O)NC[C@H]1CN(c2ccc(N3Cc4cn(C)nc4C3)c(F)c2)C(=O)O1` [N-[[(5S)-3-[4-(2,6-dihydro-2-methylpyrrolo[3,4-c]pyrazol-5(4H)-yl)-3-fluorophenyl]-2-oxo-5-oxazolidinyl]methyl]-acetamide], the solubility at 24 h in data set [1] amounted to 16 µg/mL (≈ 42.9 µM); in data set [2] (setting [10]) it was 20 µg/mL (≈ 53.6 µM); in data set [2] (setting [11]), 60 µg/mL (≈ 161 µM); in data set [2] (setting [12]), 100 µg/mL (≈ 268 µM); in data set [2] (setting [13]), 190 µg/mL (≈ 509 µM).
As for `CS(=O)(=O)O.O=c1c2c([nH]c3ccccc13)[C@@H](c1ccc3c(c1)CCO3)N(c1ccccn1)C2` [3-(2,3-dihydro-5-benzofuranyl)-1,2,3,4-tetrahydro-2-(2-pyridinyl)-9H-pyrrolo[3,4-b]quinolin-9-one, (3R) mono methanesulfonate], in data set [1], the solubility in water is 190 µg/mL. Also, the “Solubility in aqueous solution” value was 4.370 mg/mL in data set [2] (setting [6]), 9.830 mg/mL in data set [2] (setting [7]), 12.380 mg/mL in data set [2] (setting [8]) and 13.950 mg/mL in data set [2] (setting [9]).
As for `Cc1nc2n(c(=O)c1CCN1CCC(c3noc4cc(F)ccc34)CC1)CCCC2` [Risperidone, risperidone], the concentration in solution in data set [3] (solubility at 24 h) was 60 µg/mL (≈ 146 µM). Further, in data set [4], the AUC result was “slightly higher”, the Cmax result is recorded as “lower” and the half-life result is on record as “longer”.
For the molecule `Cc1cc(C#N)cc(C)c1Oc1nc(Nc2ccc(C#N)cc2)nc(N)c1Br` [TMC 125, 4-[[6-amino-5-bromo-2-[(4-cyanophenyl)amino]-4-pyrimidinyl]oxy]-3,5-dimethylbenzonitrile], the solubility at 24 h in data set [1] was less than 1 µg/mL; in data set [2] (setting [10]) it was 60 µg/mL (≈ 138 µM); in data set [2] (setting [12]), 520 µg/mL (≈ 1190 µM); in data set [2] (setting [13]) it was 870 µg/mL (≈ 2000 µM). The “Solubility in aqueous solution” value in data set [2] (setting [7]) was determined as 0.3 mg/mL.
Consider `CC(=O)N1CCN(c2ccc(OCC3COC(Cn4ccnc4)(c4ccc(Cl)cc4Cl)O3)cc2)CC1` (stereo not shown) [Ketoconazole, ketoconazole], for which the concentration in solution in data set [1] (solubility at 24 h) came to 10 µg/mL (≈ 18.8 µM).
Turning to `COc1cc2c(cc1OC)C1=NO[C@@H](CN3CCN(C/C(C)=C/c4ccc(F)cc4)CC3)[C@@H]1CO2` (relative stereo) [3-[[4-[(2E)-3-(4-fluorophenyl)-2-methyl-2-propenyl]-1-piperazinyl]methyl]-3a,4-dihydro-7,8-dimethoxy-3H-[1]benzopyrano[4,3-c]isoxazole [(3R,3aS)-rel-(+)]], in data set [1], the solubility in water is 3 µg/mL (≈ 6.23 µM). Further, the “Solubility in aqueous solution” value came out at 0.200 mg/mL in data set [2] (setting [6]), 1.010 mg/mL in data set [2] (setting [7]), 1.880 mg/mL in data set [2] (setting [8]) and 3.860 mg/mL in data set [2] (setting [9]).
Consider `Cc1cc(C=CC#N)cc(C)c1Nc1ccnc(Nc2ccc(C#N)cc2)n1` [4-[[4-[[4-(2-cyanoethenyl)-2,6-dimethylphenyl]amino]-2-pyrimidinyl]amino]benzonitrile], for which the solubility at 24 h in data set [1] was 0.02 µg/mL (≈ 0.0546 µM); in data set [2] (setting [10]), 50 µg/mL (≈ 136 µM); in data set [2] (setting [11]), 120 µg/mL (≈ 327 µM); in data set [2] (setting [12]), 230 µg/mL (≈ 628 µM); in data set [2] (setting [13]), 440 µg/mL (≈ 1200 µM).
The molecule `COc1ccc2c(c1)c(CC(=O)O)c(C)n2C(=O)c1ccc(Cl)cc1` [Indomethacin, indomethacin] showed a solubility in water in data set [5] of 0.010 mg/mL (≈ 27.9 µM). In data set [3], this molecule yielded a solubility at 24 h of 10 µg/mL (≈ 27.9 µM).
Consider `Nc1nc(Nc2ccc(S(N)(=O)=O)cc2)nn1C(=O)c1c(F)cccc1F` [N3-[4-(aminosulfonyl)phenyl]-1-(2,6-difluorobenzoyl)-1H-1,2,4-triazole-3,5-diamine], for which the solubility at 24 h amounted to 530 µg/mL (≈ 1340 µM) in data set [2] (setting [10]); 2710 µg/mL (≈ 6870 µM) in data set [2] (setting [11]); 5760 µg/mL (≈ 14600 µM) in data set [2] (setting [12]); 13900 µg/mL (≈ 35200 µM) in data set [2] (setting [13]); 15 µg/mL (≈ 38 µM) in data set [3].
